Data from US8093394B2, “Derivatives of 5-thioxylopyranose and use of same for treatment” (Laboratoires Fournier S.A., priority 2006, dated 2012).

Each compound was assayed on venous thrombosis (assay: venous thrombosis test in rats, activity via the oral route (venous stasis under hypercoagulation with factor Xa, Wessler technique)). Settings: dose 6 mg/kg, thrombosis induced 2 h after administration, male Wistar rats.
Format: in vivo
Experimental: The antithrombotic activity of the compounds according to the invention was studied in vivo in rats by virtue of a test in which a venous thrombosis is reproduced. The venous thrombosis was induced according to the protocol described in Thromb. Haemost., 1992, 67(1), 176-179. The activity via the oral route was studied according to the procedure described below. The experiment is carried out on non-fasting male Wistar rats weighing from 250 to 280 g and divided into groups of 10 animals each. The test products are administered orally (intubation) in solution or in suspension in a 0.5% solution of methylcellulose in water. The concentrations of the compounds are calculated so as to bring about the absorption of an amount of solution of 10 ml/kg orally. A thrombosis is induced at a time T after the administration of the product and the thrombus formed is removed and weighed. In order to induce this thrombosis, a venous stasis is brought about under hypercoagulation, according to the technique described by Wessler (J. Applied Physiol., 1959, 943-946), using a solution of activated factor X (Xa), supplied by Biogenic (Montpellier) and comprising a dose of 7.5 nKat/kg, as hypercoagulant. The venous stasis is brought about 10 seconds exactly after the injection of the hypercoagulant. The activity of the test compounds is monitored at various doses, after they have been administered. The thrombosis is induced 2 hours after the administration of the compound. By way of example, the results of the above tests are given in the following table for a few compounds according to the invention (the activity is expressed by the percentage of inhibition of the formation of the thrombus, observed in the presence of the compound according to the invention, with respect to the weight of the thrombus formed in the absence of the compound).
With `O[C@@H]1[C@@H](O)[C@H](Oc2ccc(-c3ccncc3)nc2F)SC[C@H]1O` [Example 22, 2-Fluoro-6-(4-pyridinyl)-3-pyridinyl 5-thio-β-D-xylopyranoside] the “Activity (percentage of inhibition of the formation of the thrombus, with respect to the weight of the thrombus formed in the absence of the compound)” value was 100%. With `Cc1oncc1-c1ccc(O[C@@H]2SC[C@@H](O)[C@H](O)[C@H]2O)cn1` [Example 140, 6-(5-Methyl-4-isoxazolyl)-3-pyridinyl 5-thio-β-D-xylopyranoside] the “Activity (percentage of inhibition of the formation of the thrombus, with respect to the weight of the thrombus formed in the absence of the compound)” value was 96%. In the case of `O[C@@H]1[C@@H](O)[C@H](Oc2ccc(-c3cccs3)nc2)SC[C@H]1O` [Example 108, 6-(2-Thienyl)-3-pyridinyl 5-thio-β-D-xylopyranoside], the “Activity (percentage of inhibition of the formation of the thrombus, with respect to the weight of the thrombus formed in the absence of the compound)” value is reported as 95%. With `O[C@@H]1[C@@H](O)[C@H](Oc2ccc(-c3ccncc3)nc2)SC[C@H]1O` [Example 122, 6-(4-Pyridinyl)-3-pyridinyl 5-thio-β-D-xylopyranoside] the “Activity (percentage of inhibition of the formation of the thrombus, with respect to the weight of the thrombus formed in the absence of the compound)” value was 93%. `Cn1cc(-c2ncc(O[C@@H]3SC[C@@H](O)[C@H](O)[C@H]3O)cc2F)cn1` [Example 224, 5-Fluoro-6-(1-methyl-1H-pyrazol-4-yl)-3-pyridinyl 5-thio-β-D-xylopyranoside] was tested, and the “Activity (percentage of inhibition of the formation of the thrombus, with respect to the weight of the thrombus formed in the absence of the compound)” value was 99%. With `O[C@@H]1[C@@H](O)[C@H](Oc2ccc(-c3cccnc3Cl)nc2)SC[C@H]1O` [Example 40, 6-(2-Chloro-3-pyridinyl)-3-pyridinyl 5-thio-β-D-xylopyranoside] the “Activity (percentage of inhibition of the formation of the thrombus, with respect to the weight of the thrombus formed in the absence of the compound)” value was 96%. With `O[C@@H]1[C@@H](O)[C@H](Oc2ccc(-c3ccncc3)nc2Cl)SC[C@H]1O` [Example 24, 2-Chloro-6-(4-pyridinyl)-3-pyridinyl 5-thio-β-D-xylopyranoside] the “Activity (percentage of inhibition of the formation of the thrombus, with respect to the weight of the thrombus formed in the absence of the compound)” value was 96%. In the case of `O[C@@H]1[C@@H](O)[C@H](Oc2cncc(-c3ccc(Cl)nc3)c2)SC[C@H]1O` [Example 30, 5-(6-Chloro-3-pyridinyl)-3-pyridinyl 5-thio-β-D-xylopyranoside], the “Activity (percentage of inhibition of the formation of the thrombus, with respect to the weight of the thrombus formed in the absence of the compound)” value is reported as 97%. `Cc1cncc(-c2ccc(O[C@@H]3SC[C@@H](O)[C@H](O)[C@H]3O)cn2)c1` [Example 142, 6-(5-Methyl-3-pyridinyl)-3-pyridinyl 5-thio-β-D-xylopyranoside] was tested, and the “Activity (percentage of inhibition of the formation of the thrombus, with respect to the weight of the thrombus formed in the absence of the compound)” value was 97%. In the case of `O[C@@H]1[C@@H](O)[C@H](Oc2ccnc(-c3ccncc3)c2)SC[C@H]1O` [Example 130, 2-(4-Pyridinyl)-4-pyridinyl 5-thio-β-D-xylopyranoside], the “Activity (percentage of inhibition of the formation of the thrombus, with respect to the weight of the thrombus formed in the absence of the compound)” value is reported as 91%. In the case of `Cc1noc(C)c1-c1ncc(O[C@@H]2SC[C@@H](O)[C@H](O)[C@H]2O)cc1F` [Example 226, 6-(3,5-Dimethyl-4-isoxazolyl)-5-fluoro-3-pyridinyl 5-thio-β-D-xylopyranoside], the “Activity (percentage of inhibition of the formation of the thrombus, with respect to the weight of the thrombus formed in the absence of the compound)” value is reported as 97%.
